Entries after “also recorded” stand apart in the source; their conditions may differ.

Series [1] is described as follows: Detection of singlet oxygen with DPBF under 740 nm irradiation. It is filed as physicochemical. As to the method:
Preparation of DPBF@C18-PEG2k and TPBC@C18-PEG2k. To a solution of C18-Fc-PEG2k (10 mg mL^-1) in water (1 mL) was added a solution of TPBC (bacteriochlorin) or DPBF (1,3-diphenylisobenzofuran) (12.5 µL, 1 mg mL^-1) in chloroform (1 mL). The mixture was sonicated using an ultrasound sonicator probe (power 40%, 10 min, pulse) allowing TPBC or DPBF to be gradually encapsulated by evaporation of chloroform via heating of the probe. The resulting TPBC/DPBF@C18-Fc-PEG2k colloidal suspension was filtered on 0.45 µm nylon membrane to eliminate any free TPBC or DPBF from the medium.
Preparation of TPBC-DPBF@C18-PEG2k. To a solution of C18-Fc-PEG2k (10 mg mL^-1) in water (1 mL) was added a solution of TPBC (12.5 µL, 1 mg mL^-1) in chloroform (1 mL). The mixture was sonicated using an ultrasound sonicator probe (power 40%, 10 min, pulse) allowing TPBC to be gradually encapsulated by evaporation of chloroform via heating of the probe. […]
1,3-Diphenylisobenzofuran (DPBF) is a reagent for detecting singlet oxygen. […] The reaction was monitored using UV-vis spectroscopy (Fig. 8B). […]
First, we ensured that both TPBC and DPBF could be encapsulated into our C18-PEG2k micelles individually. […] TPBC-DPBF@C18-PEG2k was then irradiated under 740 nm light and the photoreaction was monitored by UV-vis spectroscopy every 20 sec (Fig. 9C).

The nature of series [2]: Solubility in water by UV measurement. It is filed as physicochemical. Conditions: without micelles.

`c1ccc(-c2oc(-c3ccccc3)c3ccccc23)cc1` [DPBF, 1,3-diphenylisobenzofuran]: the “stability of DPBF under NIR light” value in series [1] (in DMSO, several minutes, without TPBC) is listed as “no alteration was observed”. In series [2], the solubility in water result is listed as “not soluble in water; also recorded: insoluble in water”.
As to `c1ccc(-c2c3nc(c(-c4ccccc4)c4ccc([nH]4)c(-c4ccccc4)c4nc(c(-c5ccccc5)c5ccc2[nH]5)CC4)CC3)cc1` [TPBC, tetraphenylbacteriochlorin], the “time to complete degradation of DPBF” value in series [1] (DPBF and TPBC in DMSO) was found to be 60 s. Moreover, the solubility in water entry in series [2] is listed as “not soluble in water; also recorded: insoluble in water”.

The values above are taken from patent EP4434996A1, “MICELLES IN CANCER TREATMENT” (Commissariat à l'Energie Atomique et aux Energies …, priority 2023, dated 2024).
